# Biological target: T1, ADMP (ADAMTS-4-5) (Homo sapiens, UniProt O75173)
# T1 construct: purchased Calbiochem PF113
# T1 sequence (O75173 213-837): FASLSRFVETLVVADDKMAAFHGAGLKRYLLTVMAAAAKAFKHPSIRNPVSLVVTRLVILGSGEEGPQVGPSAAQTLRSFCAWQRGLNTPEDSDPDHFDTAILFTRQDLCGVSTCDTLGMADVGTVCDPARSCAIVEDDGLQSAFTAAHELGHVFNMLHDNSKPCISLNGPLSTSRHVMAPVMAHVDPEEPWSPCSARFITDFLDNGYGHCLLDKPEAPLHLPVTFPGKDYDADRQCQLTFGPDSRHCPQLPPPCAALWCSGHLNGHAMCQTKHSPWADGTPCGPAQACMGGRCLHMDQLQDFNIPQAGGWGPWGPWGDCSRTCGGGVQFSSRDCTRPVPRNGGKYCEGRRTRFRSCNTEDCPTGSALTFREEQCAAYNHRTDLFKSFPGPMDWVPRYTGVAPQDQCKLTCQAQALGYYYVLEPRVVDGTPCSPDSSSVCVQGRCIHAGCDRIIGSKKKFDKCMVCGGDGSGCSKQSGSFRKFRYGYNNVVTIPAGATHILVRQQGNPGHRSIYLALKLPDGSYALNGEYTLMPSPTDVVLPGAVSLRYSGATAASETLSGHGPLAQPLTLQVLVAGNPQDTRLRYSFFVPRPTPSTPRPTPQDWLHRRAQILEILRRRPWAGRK
# Assay: ADMP activity assay (procedures of WO00/05256)
# Assay type: biochemical
# Settings: not given
# From the text: The procedures of International Patent Publication WO00/05256 (published Feb. 3, 2000) were followed for detection of ADMP Activity and for measuring the IC50 of the compounds of the present invention. This was indicative of activity against a desintgrin and metallopropeinase thrombo spondin 4 and 5 (ADAMTS-4-5).
# The enzyme was purchased commercially from Calbiochem (Cat# PF113) and the peptide substrate described in the patent was custom-ordered from AnaSpec.
row,SMILES,IC50 [µM]
1,CC(=O)C1(c2ccccc2)CCN(C(=O)[C@H](O)[C@@H](O)C(=O)N[C@@H](C)c2ccc(Br)cc2)CC1 [Compound 133],< 0.25
2,C[C@H](NC(=O)[C@H](O)[C@@H](O)C(=O)N1CCC(N2C(=O)Cc3ccccc32)CC1)c1ccc(Br)cc1 [Compound 165],1 to 5

# Same assay, conditions: read-out: IC50 (ADMP inhibition)
row,SMILES,IC50 [µM]
1,C[C@H](NC(=O)[C@H](O)[C@@H](O)C(=O)N1Cc2ccccc2C[C@@H]1CO)c1ccc(Br)cc1 [Compound 138],0.19
2,COc1cccc(N2CCN(C(=O)[C@H](O)[C@@H](O)C(=O)N[C@@H](C)c3ccc(Br)cc3)CC2)c1 [Compound 143],0.09
3,C[C@H](NC(=O)[C@H](O)[C@@H](O)C(=O)N1CCC(S(=O)(=O)c2ccccc2)CC1)c1ccc(Br)cc1 [Compound 148],0.047
4,C[C@H](NC(=O)[C@H](O)[C@@H](O)C(=O)N1CCC(Oc2ccccc2)CC1)c1ccc(Br)cc1 [Compound 149],0.09
5,C[C@H](NC(=O)[C@H](O)[C@@H](O)C(=O)N1CCCC1c1nc2ccccc2s1)c1ccc(Br)cc1 (some centres unmarked) [Compound 160],0.16
6,O=C(NCc1ccc(I)cc1)[C@H](O)[C@@H](O)C(=O)N1CCc2ccccc2C1 [Compound 204],0.09
7,COc1cc2c(cc1OC)CN(C(=O)[C@H](O)[C@@H](O)C(=O)N[C@@H](C)c1ccc(Br)cc1)CC2 [Compound 207],0.096

# Same assay, conditions: read-out: IC50 rating (ADMP inhibitory activity)
row,SMILES,IC50 [µM]
1,COc1ccc(N2CCN(C(=O)[C@H](O)[C@@H](O)C(=O)NCc3ccc(Cl)cc3)CC2)cc1 [Compound 132],0.25 to 1
2,COc1ccc(CNC(=O)[C@H](O)[C@@H](O)C(=O)N2CCC[C@H]2CN2CCCC2)cc1 [Compound 134],0.25 to 1
3,C[C@H](NC(=O)[C@H](O)[C@@H](O)C(=O)N1Cc2ccccc2C[C@@H]1CO)c1ccc(Br)cc1 [Compound 138],< 0.25
4,C[C@H](NC(=O)[C@H](O)[C@@H](O)C(=O)N(C)Cc1cc(Cl)cc(Cl)c1)c1ccc(Br)cc1 [Compound 139],0.25 to 1
5,Cc1ccc(N2CCN(C(=O)[C@H](O)[C@@H](O)C(=O)N[C@@H](C)c3ccc(Br)cc3)CC2)cc1C [Compound 142],0.25 to 1
6,COc1cccc(N2CCN(C(=O)[C@H](O)[C@@H](O)C(=O)N[C@@H](C)c3ccc(Br)cc3)CC2)c1 [Compound 143],< 0.25
7,C[C@H](NC(=O)[C@H](O)[C@@H](O)C(=O)N1CCN(c2ccc(F)cc2F)CC1)c1ccc(Br)cc1 [Compound 144],< 0.25
8,C[C@H](NC(=O)[C@H](O)[C@@H](O)C(=O)N1CCC(S(=O)(=O)c2ccccc2)CC1)c1ccc(Br)cc1 [Compound 148],< 0.25
9,C[C@H](NC(=O)[C@H](O)[C@@H](O)C(=O)N1CCC(Oc2ccccc2)CC1)c1ccc(Br)cc1 [Compound 149],< 0.25
10,C[C@H](NC(=O)[C@H](O)[C@@H](O)C(=O)N1CCN(c2ccc(O)cc2)CC1)c1ccc(Br)cc1 [Compound 150],1 to 5
11,C[C@H](NC(=O)[C@H](O)[C@@H](O)C(=O)N1CCC(c2nc3ccccc3s2)CC1)c1ccc(Br)cc1 [Compound 151],< 0.25
12,C[C@H](NC(=O)[C@H](O)[C@@H](O)C(=O)N1CCC2(CC1)C(=O)Nc1ccccc12)c1ccc(Br)cc1 [Compound 152],1 to 5
13,C[C@H](NC(=O)[C@H](O)[C@@H](O)C(=O)N1CCC2(CCCNC2)CC1)c1ccc(Br)cc1 [Compound 158],> 5
14,C[C@H](NC(=O)[C@H](O)[C@@H](O)C(=O)N1CCCC1c1nc2ccccc2s1)c1ccc(Br)cc1 (some centres unmarked) [Compound 160],< 0.25
15,COc1ccccc1N1CCN(C(=O)[C@H](O)[C@@H](O)C(=O)N[C@@H](C)c2ccc(Br)cc2)CC1 [Compound 164],0.25 to 1
16,C[C@H](NC(=O)[C@H](O)[C@@H](O)C(=O)N1CCc2c([nH]c3ccccc23)C1)c1ccc(Br)cc1 [Compound 169],0.25 to 1
17,C[C@H](NC(=O)[C@H](O)[C@@H](O)C(=O)N1CCCC1c1ccccc1)c1ccc(Br)cc1 (some centres unmarked) [Compound 172],0.25 to 1
18,C[C@H](NC(=O)[C@H](O)[C@@H](O)C(=O)N[C@@H]1c2ccccc2C[C@@H]1O)c1ccc(Br)cc1 [Compound 173],> 5
19,C[C@H](NC(=O)[C@H](O)[C@@H](O)C(=O)N[C@H]1c2ccccc2C[C@H]1O)c1ccc(Br)cc1 [Compound 174],> 5
20,C[C@H](NC(=O)[C@H](O)[C@@H](O)C(=O)N1Cc2ccccc2C1)c1ccc(Br)cc1 [Compound 175],0.25 to 1
21,C[C@H](NC(=O)[C@H](O)[C@@H](O)C(=O)N(C)CCc1ccccc1)c1ccc(Br)cc1 [Compound 176],0.25 to 1
22,O=C(NCc1ccc(C(F)(F)F)cc1)[C@H](O)[C@@H](O)C(=O)N1CCc2ccccc2C1 [Compound 180],0.25 to 1

row,SMILES,IC50 [µM]
1,O=C(NCc1cccc(I)c1)[C@H](O)[C@@H](O)C(=O)N1CCc2ccccc2C1 [Compound 181],> 5
2,O=C(NCc1ccc(Br)cc1)[C@H](O)[C@@H](O)C(=O)N1CCc2ccccc2C1 [Compound 184],0.25 to 1
3,O=C(NCc1cccc(Br)c1)[C@@H](O)[C@H](O)C(=O)N1CCc2ccccc2C1 [Compound 185],> 5
4,CC(NC(=O)[C@H](O)[C@@H](O)C(=O)N1CCc2ccccc2C1)c1ccc(S(C)(=O)=O)cc1 (some centres unmarked) [Compound 186],> 5
5,C[C@@H](c1ccc(Br)cc1)N(C)C(=O)[C@@H](O)[C@H](O)C(=O)N1CCc2ccccc2C1 [Compound 187],> 5
6,CN1CCC(N(C)C(=O)[C@@H](O)[C@H](O)C(=O)NCc2ccc(I)cc2)CC1 [Compound 189],> 5
7,C[C@H](NC(=O)[C@H](O)[C@@H](O)C(=O)N1CCc2ccccc2C1)c1ccc(-c2cccc(N3CCCC3)c2)cc1 [Compound 196],< 0.25
8,C[C@H](NC(=O)[C@H](O)[C@@H](O)C(=O)N1CCc2ccccc2C1)c1ccc(-c2ccc(O)cc2)cc1 [Compound 200],< 0.25
9,CC(NC(=O)[C@H](O)[C@@H](O)C(=O)N1CCc2ccccc2C1)c1ccc(C(F)(F)F)cc1 (some centres unmarked) [Compound 201],0.25 to 1
10,O=C(NCc1ccc(I)cc1)[C@H](O)[C@@H](O)C(=O)N1CCc2ccccc2C1 [Compound 204],< 0.25
11,C[C@H](NC(=O)[C@H](O)[C@@H](O)C(=O)N(C)C1Cc2ccccc2C1)c1ccc(Br)cc1 [Compound 206],0.25 to 1
12,COc1cc2c(cc1OC)CN(C(=O)[C@H](O)[C@@H](O)C(=O)N[C@@H](C)c1ccc(Br)cc1)CC2 [Compound 207],< 0.25
13,C[C@H](NC(=O)[C@H](O)[C@@H](O)C(=O)N1CCCC1c1cccc(Cl)c1)c1ccc(Br)cc1 (some centres unmarked) [Compound 209],< 0.25
14,O=C(NCc1cccc(Br)c1)C(O)C(O)C(=O)N1CCc2ccccc2C1 (centres unmarked) [Compound 211],> 5
15,O=C(NCc1cccc(I)c1)C(O)C(O)C(=O)N1CCc2ccccc2C1 (centres unmarked) [Compound 212],> 5
16,C[C@H](NC(=O)C(O)C(O)C(=O)N1CCN(c2ccc(O)cc2)CC1)c1ccc(Br)cc1 (some centres unmarked) [Compound 215],1 to 5
17,C[C@H](NC(=O)C(O)C(O)C(=O)N1Cc2ccccc2C1)c1ccc(O)cc1 (some centres unmarked) [Compound 216],< 0.25
18,C[C@H](NC(=O)C(O)C(O)C(=O)N1Cc2ccccc2C1)c1cccc(O)c1 (some centres unmarked) [Compound 217],1 to 5
19,C[C@H](NC(=O)C(O)C(O)C(=O)N1CCc2ccccc2C1)c1cccc(Br)c1 (some centres unmarked) [Compound 218],> 5
20,C[C@H](NC(=O)C(O)C(O)C(=O)N1CCc2ccccc2C1)c1cccc(I)c1 (some centres unmarked) [Compound 219],1 to 5
21,C[C@H](NC(=O)C(O)C(O)C(=O)N1CCc2ccccc2C1)c1ccc(C(F)(F)F)cc1F (some centres unmarked) [Compound 220],> 5
22,O=C(NCCCCCn1c(C(F)(F)F)nc2ccccc21)C(O)C(O)C(=O)N1CCc2ccccc2C1 (centres unmarked) [Compound 221],> 5

# Reference: patent US7553864B2, “Compounds for the treatment of inflammatory disorders and microbial diseases” (Schering Corporation, priority 2005, dated 2009)
